Holding throughout (assay): NCI-60 cell line screen, 48 h
The test system of test [1] is ACHN renal.
In test [2] the test system is K-562 leukemia.
Test [3] deals with KM12 colon.
Test [4] has as its system LOX IMVI melanoma.
Test [5] has as its system OVCAR-8 ovarian.
Test [6] concerns SF-295 CNS.
The subject of test [7] is SF-539 CNS.
Test [8] deals with SNB-75 CNS.
Test [9] has as its system UACC-257 melanoma.
Test [10] deals with UO-31 renal.

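Briefly, cells in 96-well plates were exposed to five compound concentrations for 48 h, and endpoints were estimated by linear interpolation. The concentration for 50% growth inhibition is given as GI50. TGI denotes the concentration required for complete inhibition of growth.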

For `C=CCc1c(O)c(C(=O)/C=C/c2ccccc2)c(OC)c2ccoc12`, the GI50 is 3.79 µM in test [1]; 2.87 µM in test [2]; 4.06 µM in test [3]; 1.56 µM in test [4]; 3.13 µM in [5]; 2.44 µM in [6]. For the same compound, the GI50 in [7] was 1.71 µM; in test [8], 1.39 µM; in [9] it was 2.56 µM; in test [10], 2.89 µM. Further, the TGI in [1] is 13.8 µM; in test [2] it was 16.2 µM; in [3] it was 13.6 µM; in [4], 2.93 µM; in test [5] it was 13.6 µM; in [6], 7.26 µM. The TGI worked out at 3.93 µM in test [7], 6.76 µM in test [8], 7.75 µM in test [9] and 14.5 µM in test [10].

In the case of `COCc1c(-c2ccc(NC(=O)Nc3cc(C(F)(F)F)ccc3F)c(F)c2)c2c(N)ncnn2c1CN1CCOCC1`, the GI50 in test [1] was 1.48 µM; in test [2] it was 1.18 µM; in test [3], 0.041 µM; in [4], 1.36 µM; in test [5] it was 2.66 µM; in [6], 1.56 µM. The GI50 in test [7] was 0.283 µM; in [8] it was 0.492 µM; in [9], 3.43 µM; in test [10], 1.59 µM. For the same compound, the TGI in test [1] was above 10 µM; in [2] it was above 10 µM; in [3], 5.43 µM; in [4], 5.77 µM; in test [5] it was above 10 µM; in [6], 6.54 µM. Also, the TGI in test [7] was 2.64 µM; in test [8], 3.25 µM; in test [9], above 10 µM; in test [10], above 10 µM.

For `COc1ccc2c(c1)C(=O)c1c-2c(Nc2cccc(C(C)=O)c2)nc2ccccc12`, the GI50 is 4.21 µM in test [1]; 44.7 µM in test [2]; 27 µM in test [3]; 13.4 µM in test [4]; 14.5 µM in test [5]; 21.7 µM in test [6]. The GI50 is 10.2 µM in test [7], 5.55 µM in test [8], 23.9 µM in test [9] and 15.4 µM in test [10]. Moreover, the TGI in test [1] was 14.9 µM; in test [2], above 100 µM; in test [3] it was above 100 µM; in [4], 27.5 µM; in test [5], 34.7 µM; in [6] it was 56.2 µM. Besides, the TGI was found to be 22.2 µM in test [7], 20.5 µM in test [8], 61.7 µM in test [9] and 45.2 µM in [10].

As for `COCCn1cc(-c2csc(-c3c[nH]c4ccc(Br)cc34)n2)c2cccnc21`, the GI50 in [1] was 3.04 µM; in [2], 3.6 µM; in test [3] it was 2.74 µM; in test [4], 2.67 µM; in [5], 5.35 µM; in test [6], 2.83 µM. Moreover, the GI50 in [7] is 7.34 µM; in [8] it was 4.72 µM; in test [9], 8.69 µM; in test [10], 3.1 µM. The TGI in test [1], in test [2], in [3], in [4], in [5] and in test [6] was above 100 µM throughout. Besides, the TGI was above 100 µM in test [7], 29.4 µM in [8], 64.2 µM in [9] and above 100 µM in test [10].

As for `Nc1c(F)cc(-c2nc3cc(F)ccc3[se]2)cc1Br`, the GI50 in test [1] is 2 µM; in test [2], 49.2 µM; in [3] it was 0.15 µM; in test [4] it was 14.1 µM; in test [5], 42.1 µM; in test [6], 12.7 µM. Further, the GI50 in test [7] is 11.4 µM; in test [8], 3.23 µM; in test [9] it was above 100 µM; in test [10], 1.43 µM. In addition, the TGI in test [1], in [2], in [3], in [4], in test [5] and in test [6] was above 100 µM in each case. Also, the TGI in test [7] was 32.4 µM; in test [8] it was above 63 µM; in test [9], above 100 µM; in [10], above 79 µM.

For `CCC[CH2][Pb]([Cl])([CH2]CCC)[CH2]CCC`, the GI50 is 0.0221 µM in [1]; 0.0277 µM in test [2]; 0.0326 µM in test [3]; 0.0223 µM in [4]; 0.0206 µM in test [5]; 0.13 µM in [6]. Besides, the GI50 in [7] is 0.0338 µM; in test [8], 0.0215 µM; in test [9] it was 0.0589 µM; in test [10], 0.031 µM. In addition, the TGI in test [1] amounted to 0.0558 µM; in test [2], 0.931 µM; in test [3], 0.081 µM; in [4], 0.045 µM; in [5] it was 0.0464 µM; in test [6] it was 0.26 µM. In addition, the TGI in test [7] was 0.0892 µM; in test [8] it was 0.114 µM; in test [9] it was 0.157 µM; in [10], 0.0809 µM.

Take `[O-]c1c2c(nn1-c1ccc(Cl)cc1)c1ccccc1c[n+]2Cc1ccccc1`: the TGI in test [1], in test [2], in test [3], in test [4], in [5] and in test [6] was above 100 µM in each case. The TGI was above 100 µM in [7], 69.2 µM in test [8], above 100 µM in [9] and above 100 µM in [10].

For `COC(=O)[C@]12CC[C@@H](C)[C@H](C)[C@@H]1C1=CC[C@@H]3[C@@]4(C)C(C=O)=C[C@@](C)(COC(=O)/C=C/c5ccccc5)[C@@H]4[C@H](O)C[C@@]3(C)[C@]1(C)CC2`, the GI50 in test [1] was 2.76 µM; in test [2], 3.53 µM; in test [3] it was 3.58 µM; in [4] it was 1.77 µM; in [5], 3.98 µM; in test [6] it was 2.06 µM. The GI50 in [7] was 3.78 µM; in [8], 3.37 µM; in test [9], 2.36 µM; in test [10], 3.28 µM. For the same compound, the TGI was 9.95 µM in test [1]; above 100 µM in test [2]; 19.4 µM in test [3]; 3.66 µM in test [4]; 30.3 µM in test [5]; 5.78 µM in test [6]. The TGI in test [7] stood at 17.5 µM; in test [8] it was 31.5 µM; in test [9], 6.82 µM; in test [10] it was 20.2 µM.

The values are drawn from PubChem BioAssay (NCI).
